pIC50: −log10 of the molar value. Blank lines part the entries; values can stand above or below the molecule they belong to.
What was measured:
[1] = tested on: Androgen-induced PSA-luciferase; assay: Androgen-induced PSA (6.1 kb)-luciferase reporter assay in LNCaP cells; type: cell-based; settings: Homo sapiens, R1881 1 nM, 24 h
Procedure: To determine the IC50, treatments were normalized to the maximum activity with androgen-induction (in the absence of test compounds, vehicle only) (Table 1).
Luciferase Assay: Lysates were thawed on ice then collected into V-bottom 96-well tissue culture plates. Lysates were centrifuged at 4° C. for 5 minutes at 4000 rpm. To measure luminescence of LNCaP cell lysates the Firefly Luciferase Assay System (Promega) was employed, according to manufacturer's protocol.
Comparisons between treatment and control groups were compared using Two-Way ANOVA with post-hoc Dunnett's and Tukey's tests. Differences were considered statistically significant at P values less than 0.05. Densitometric quantification of relative AR levels was determined by Image.

[2] = tested on: AR full-length and AR V7 driven genes in LNCaP95 cells; assay: mRNA expression of androgen responsive genes in LNCaP95 (+R1881) cells (NanoString Androgen Receptor/Prostate Cancer gene panel)
Procedure: Relative mRNA expression in LNCaP95 (+R1881) was measured for Canonical AR target genes (FIG. 9A) and AR V7-activated genes (FIG. 9B).
Data shown in FIGS. 8A-8B and 9A-9B and Table 5 were generated using NanoString Androgen Receptor/Prostate Cancer gene panel.

[3] = tested on: androgen responsive genes in LNCaP cells; assay: mRNA expression of androgen responsive genes in LNCaP cells (NanoString Androgen Receptor/Prostate Cancer gene panel)
VCaP tumors = assay: VCaP xenograft model, castrated male SCID Beige mice; type: in vivo; settings: oral, castrated male SCID Beige mice (FIGS. 1-4)
Procedure: Tumor growth was measured in male SCID Beige mice bearing VCaP tumors. […] Individual tumor volume change from baseline measured on day 17 of the experiment (FIGS. 2A-2B). Serum prostate-specific antigen (PSA) was measured in mice at the end of each treatment (FIG. 3). Body weight of the mice were captured biweekly in the animals and normalized to baseline (FIG. 4).

- pIC50 [1]: 6.23
SMILES: CC(C)(c1ccc(OCc2ocnc2S(C)(=O)=O)cc1)c1cc(Cl)c(OCCCl)c(Cl)c1 [Compound A13, 5-((4-(2-(3,5-dichloro-4-(2-chloroethoxy)phenyl)propan-2-yl)phenoxy)methyl)-4-(methylsulfonyl)oxazole]

- pIC50 [1]: 6.40
SMILES: CC(C)(c1ccc(OCc2ocnc2S(C)(=O)=O)cc1)c1cc(Cl)c(OCCCl)c(C#N)c1 [Compound A28]

- pIC50 [1]: 6.33
SMILES: Cc1cc(C(C)(C)c2ccc(OCc3ocnc3S(C)(=O)=O)cc2)cc(C#N)c1OCCCl [Compound A29]

- pIC50 [1]: 6.29
SMILES: CC(Oc1ccc(C(C)(C)c2cc(Cl)c(OCCCl)c(Cl)c2)cc1)c1ocnc1S(C)(=O)=O (centres unmarked) [Compound A35, 5-(1-(4-(2-(3,5-dichloro-4-(2-chloroethoxy)phenyl)propan-2-yl)phenoxy)ethyl)-4-(methylsulfonyl)oxazole]

- pIC50 [1]: 6.20
SMILES: CC(C)(c1ccc(OCc2coc(NS(C)(=O)=O)n2)cc1)c1cc(Cl)c(OCCCl)c(Cl)c1 [Compound A38, N-(4-((4-(2-(3,5-dichloro-4-(2-chloroethoxy)phenyl)propan-2-yl)phenoxy)methyl)oxazol-2-yl)methanesulfonamide]

- pIC50 [1]: 6.05
SMILES: CC(C)(c1ccc(OCc2ncc(S(C)(=O)=O)o2)cc1)c1cc(Cl)c(OCCCl)c(Cl)c1 [Compound A66]

- pIC50 [1]: 6.18
SMILES: CC(C)(c1ccc(OCc2ccnc(NS(C)(=O)=O)n2)cc1)c1cc(Cl)c(OCCCl)c(Cl)c1 [Compound A74]

- pIC50 [1]: 6.69
SMILES: CC(C)(c1ccc(OCc2ncc(S(C)(=O)=O)s2)cc1)c1cc(Cl)c(OCCCl)c(C#N)c1 [Compound A93]

- pIC50 [1]: 6.27
SMILES: CC(C)(c1ccc(OCc2ccnc(NS(C)(=O)=O)n2)cc1)c1cc(Cl)c(OCCCl)c(C#N)c1 [Compound A109, N-(4-((4-(2-(3-chloro-4-(2-chloroethoxy)-5-cyanophenyl)propan-2-yl)phenoxy)methyl)pyrimidin-2-yl)methanesulfonamide]
- log2 Fold Change ADAMTS1 ([2]; 7.5 μM): −3.96
- log2 Fold Change CCND1 ([2]; 7.5 μM): −3.96
- log2 Fold Change FKBP5 ([2]; 7.5 μM): −4.18
- log2 Fold Change KLK2 ([2]; 7.5 μM): −5.07
- log2 Fold Change KLK3 ([2]; 7.5 μM): −5.48
- log2 Fold Change NCAPD3 ([2]; 7.5 μM): −3.8
- log2 Fold Change NDRG1 ([2]; 7.5 μM): −4.47
- log2 Fold Change NKX3-1 ([2]; 7.5 μM): −4.23
- log2 Fold Change PMEPA1 ([2]; 7.5 μM): −3.93
- log2 Fold Change PRR15L ([2]; 7.5 μM): −3.89
- modulation of AR full-length and AR V7 driven genes ([2]; FIGS. 8A-8B and 9A-9B): can modulate AR full-length and AR V7 driven genes
- response in the androgen response genes FKBP5, TMPRSS2, KLK2, KLK3, and NKX3.1 (relative mRNA expression) ([3]; LNCaP cells, FIG. 6A): dose-dependent response
- Log2Fold Change ACSL3 ([3]; LNCaP, 7.5 μM single agent): −3.62
- Log2Fold Change AKAP12 ([3]; LNCaP, 7.5 μM single agent): −3.84
- Log2Fold Change CDC6 ([3]; LNCaP, 7.5 μM single agent): −3.60
- Log2Fold Change CENPN ([3]; LNCaP, 7.5 μM single agent): −2.13
- Log2Fold Change EAF2 ([3]; LNCaP, 7.5 μM single agent): −3.81
- Log2Fold Change ELL2 ([3]; LNCaP, 7.5 μM single agent): −3.05
- Log2Fold Change ERRFI1 ([3]; LNCaP, 7.5 μM single agent): −2.76
- Log2Fold Change FAM105A ([3]; LNCaP, 7.5 μM single agent): −2.78
- Log2Fold Change FKBP5 ([3]; LNCaP, 7.5 μM single agent): −4.47
- Log2Fold Change KLK2 ([3]; LNCaP, 7.5 μM single agent): −2.71
- Log2Fold Change KLK3 ([3]; LNCaP, 7.5 μM single agent): −2.42
- Log2Fold Change NCAPD3 ([3]; LNCaP, 7.5 μM single agent): −4.40
- Log2Fold Change NDRG1 ([3]; LNCaP, 7.5 μM single agent): −4.17
- Log2Fold Change NKX3-1 ([3]; LNCaP, 7.5 μM single agent): −2.28
- Log2Fold Change PLPP1 ([3]; LNCaP, 7.5 μM single agent): −3.53
- Log2Fold Change PMEPA1 ([3]; LNCaP, 7.5 μM single agent): −2.16
- Log2Fold Change RHOU ([3]; LNCaP, 7.5 μM single agent): −3.03
- Log2Fold Change SNAI2 ([3]; LNCaP, 7.5 μM single agent): −1.79
- Log2Fold Change STEAP4 ([3]; LNCaP, 7.5 μM single agent): −4.22
- Log2Fold Change TMPRSS2 ([3]; LNCaP, 7.5 μM single agent): −3.32
- modulation of androgen receptor full-length driven genes ([3]; LNCaP, FIGS. 5A-5B and Table 4): can modulate androgen receptor0 full-length driven genes similar to enzalutamide
- anti-tumor response (VCaP tumors; in combination with enzalutamide): excellent anti-tumor response
- anti-tumor response (VCaP tumors; monotherapy): excellent anti-tumor response

- pIC50 [1]: 6.59
SMILES: Cc1cnc(NS(C)(=O)=O)nc1COc1ccc(C(C)(C)c2cc(Cl)c(OCCCl)c(C#N)c2)cc1 [Compound A122]

- pIC50 [1]: 6.20
SMILES: CCS(=O)(=O)Nc1nc(COc2ccc(C(C)(C)c3cc(Cl)c(OCCCl)c(C#N)c3)cc2)co1 [Compound A126]

- pIC50 [1]: 5.96
SMILES: CCS(=O)(=O)Nc1nccc(COc2ccc(C(C)(C)c3cc(Cl)c(OCCCl)c(C#N)c3)cc2)n1 [Compound A131]

- pIC50 [1]: 6.22
SMILES: CC(C)(c1ccc(OCc2nc(S(C)(=O)=O)cs2)cc1)c1cc(Cl)c(OCCCl)c(C#N)c1 [Compound A136]

SMILES: C[C@H](Oc1ccc(C(C)(C)c2cc(Cl)c(OCCCl)c(Cl)c2)cc1)c1ccnc(NS(C)(=O)=O)n1 [Compound A170]
- pIC50 [1]: 6.19

SMILES: CC(O)c1cc(C(=O)N[C@@H](C)Cn2ccc(-c3ccc(C#N)c(Cl)c3)n2)[nH]n1 (some centres unmarked) [Darolutamide, darolutamide, reference compound]
- activity on gene expression in LNCaP ([3]; LNCaP cells, FIG. 7A-7B): not very active
